{
  "source": "patent US6809092B2",
  "about": "“Benezene-fused heteroring derivatives and pharmaceutical agents comprising the same as active ingredient” (Ono Pharmaceutical Co., Ltd., priority 2000, dated 2004)",
  "assay_type_in_all_cases": "biochemical",
  "key": {"[1]": {"target": "T1, cathepsin K (Homo sapiens, UniProt P43235)", "T1 sequence (P43235 115-329)": "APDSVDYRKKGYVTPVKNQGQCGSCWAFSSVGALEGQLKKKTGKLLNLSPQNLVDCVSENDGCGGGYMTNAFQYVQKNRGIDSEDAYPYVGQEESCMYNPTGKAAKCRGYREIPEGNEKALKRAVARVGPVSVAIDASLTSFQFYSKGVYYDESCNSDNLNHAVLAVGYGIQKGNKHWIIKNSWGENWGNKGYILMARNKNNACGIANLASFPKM", "experiment": "Measurement of cathepsin K inhibitory activity", "conditions": "Dixon plot, pH 5.5, 37° C.", "description": "(i) Measurement of Cathepsin K Inhibitory Activity\n65 μL of Cathepsin K enzyme reaction buffer (50 mmol/L of 2-(N-morpholino)ethanesulfonate, 2 mmol/L of ethylenediamine tetraacetate (EDTA) and 4 mmol/L of dithiothreitol (DTT) were mixed to adjust to pH 5.5), 5 μL of cysteine protease inhibitor solution of several concentrations, 20 μL of synthesized substrate (t-butyloxycarbonyl-L-alanyl-glycyl-L-prolyl-L-arginine-4-methyl-chromanyl-7-amide) solution of several concentrations and 10 μL of cathepsin K enzyme solution were mixed and the increase of fluorescence intensity when reacted at 37° C. was measured (λ ex (excitation wavelength)=355 nm, λ em (fluorescence wavelength)=460 nm). As to the substrate and the compound of the present invention, enzyme reactions were carried out in combination of several appropriate concentrations and Dixon plotting was prepared, to define the absolute value of X-coordinate of the intersection point of the graph as Ki value."}, "[2]": {"target": "cathepsin B (Homo sapiens, UniProt P07858)", "experiment": "Measurement of cathepsin B inhibitory activity", "description": "(ii) Measurement of Cathepsin B Inhibitory Activity\n10 μL of Synthesized substrate (carbobenzoxy-L-arginyl-L-arginine-4-methyl-chromanyl-7-amide or carbobenzoxy-L-phenylalanyl-L-arginine-4-methyl-chromanyl-7-amide) solution of several concentrations, 10 μL of cysteine protease inhibitor solution of several concentrations, 70 μL of cathepsin B enzyme reaction buffer (mixture of 400 mmol/L in acetic acid, 4 mmol/L EDTA, 8 mmol/L DDT to adjust to pH 5.5) and 10 μL of cathepsin B enzyme solution were mixed and the increase of fluorescence intensity was measured (λ ex (excitation wavelength)=355 nm, μ em (fluorescence wavelength)=460 nm) when reacted at 37° C.\nFor example, the inhibitory activity of the compound of example 10 was 95% at 1 μM."}, "[3]": {"target": "cathepsin S (Homo sapiens, UniProt P25774)", "sequence (P25774 115-331, species assumed)": "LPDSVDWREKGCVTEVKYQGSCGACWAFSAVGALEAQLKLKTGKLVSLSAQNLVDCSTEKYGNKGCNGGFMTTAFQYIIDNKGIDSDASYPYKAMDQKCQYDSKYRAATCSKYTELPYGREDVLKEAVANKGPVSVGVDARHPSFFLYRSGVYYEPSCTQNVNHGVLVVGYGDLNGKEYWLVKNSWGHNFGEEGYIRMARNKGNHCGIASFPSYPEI", "experiment": "Measurement of cathepsin S inhibitory activity", "description": "(iii) Measurement of Cathepsin S Inhibitory Activity\n10 μL of synthesized substrate (carbobenzoxy-L-leucyl-L-leucyl-L-arguinine-4-methyl-chromanyl-7-amide) solution and 5 μL of cysteine protease inhibitor solution of several concentrations, 75 μL of cathepsin S enzyme reaction buffer (100 mmol/L of sodium phosphate, 2 mmol/L of EDTA, 2 mmol/L of DTT were mixed to adjust to pH 6.5) and 10 μL of cathepsin S enzyme solution were mixed and the increase of fluorescence intensity was measured (λ ex(excitation wavelength)=355 nm, λ em (fluorescence wavelength)=460 nm) when reacted at 37° C.\nIt was confirmed that the compound of the present invention of formula (I) has an inhibitory effect more than 50% at 10 μM. For example, the inhibitory activity of the compound of example 18 was 98% at 1 μM."}, "[4]": {"target": "cathepsin L (Homo sapiens, UniProt P07711)", "sequence (P07711 114-333, species assumed)": "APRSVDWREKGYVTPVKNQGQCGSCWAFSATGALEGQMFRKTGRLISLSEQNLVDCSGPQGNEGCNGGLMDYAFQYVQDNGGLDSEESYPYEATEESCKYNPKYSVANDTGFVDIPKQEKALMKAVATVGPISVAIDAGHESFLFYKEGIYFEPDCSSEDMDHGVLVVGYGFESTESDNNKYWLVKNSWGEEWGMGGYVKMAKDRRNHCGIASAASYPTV", "experiment": "Measurement of cathepsin L inhibitory activity", "description": "(iv) Measurement of Cathepsin L Inhibitory Activity\n5 μL of Synthesized substrate (carbobenzoxy-L-phenylalanyl-L-arguine-4-methyl-chromanyl-7-amide or L-prolyl-L-phenylalanyl-L-arguinine-4-methyl-chromanyl-7-amide) solution and 5 μL of cysteine protease inhibitor solution of several concentrations, 80 μL of cathepsin L enzyme reaction buffer (400 mmol/L acetic acid, 4 mmol/L EDTA, 8 mmol/L DTT were mixed to adjust to pH 5.5) and 10 μL of cathepsin L enzyme solution were mixed and the increase of fluorescence intensity was measured (λ ex (excitation wavelength)=355 nm, λ em (fluorescence wavelength)=460 nm) when reacted at 37° C.\nFor example, the inhibitory activity of the compound of example 22(4) was 97% at 1 μM."}},
  "data": [
    {"smiles": "CC(C)C[C@H](NC(=O)[C@H](CC(C)C)NC(=O)OCc1ccccc1)C(=O)CN1CCCc2ccccc2C1", "note": "[3(14), (2S)-N-[(3S)-5-methyl-2-oxo-1-(1,3,4,5-tetrahydro-2H-2-benzazepin-2-yl)-3-hexyl]-4-methyl-2-benzyloxycarbonylamino pentanamide]", "values": [
      {"measurement": "Ki", "setting": "[1]", "result": 100, "unit": "nM"}
    ]},
    {"smiles": "CC(C)C[C@H](NC(=O)[C@@H]1CCCC[C@@H]1NC(=O)c1ccccc1)C(=O)CN1CCCc2ccccc2C1", "note": "[example 3]", "values": [
      {"measurement": "Ki", "setting": "[1]", "result": 170, "unit": "nM"}
    ]},
    {"smiles": "CC(C)C[C@H](NC(=O)[C@@H]1CCCC[C@@H]1NC(=O)c1ccccc1)C(=O)CN1CCCCc2ccccc21", "note": "[example 10]", "values": [
      {"measurement": "inhibition at 1 µM", "setting": "[2]", "result": 95, "unit": "%"}
    ]},
    {"smiles": "CC(C)CC(NC(=O)[C@H](CC(C)C)NC(=O)OCc1ccccc1)C(=O)CN1CCCc2cc(O)ccc2C1", "note": "(stereo partly drawn) [example 18]", "values": [
      {"measurement": "inhibition at 1 µM", "setting": "[3]", "result": 98, "unit": "%"}
    ]},
    {"smiles": "CC(C)C[C@H](NC(=O)[C@H](CC(C)C)NC(=O)OCc1ccccc1)C(=O)CN1CCN(C(C)C)c2ccccc2C1", "note": "[example 22(4), (2S)-N-[(3S)-5-methyl-1-(1-isopropyl-2,3,4,5-tetrahydro-1H-1,4-benzodiazepin-4-yl)-2-oxo-3-hexyl]-2-benzyloxycarbonyl amino-4-methylpentanamide]", "values": [
      {"measurement": "inhibition at 1 µM", "setting": "[4]", "result": 97, "unit": "%"}
    ]},
    {"smiles": "CC(C)C[C@H](NC(=O)[C@H](CC(C)C)NC(=O)OCc1ccccc1)C(=O)CN1CCSc2ccccc2C1", "note": "[example 31, (2S)-N-[(3S)-5-methyl-2-oxo-1-(2,3,4,5-tetrahydro-1,4-benzothiazepin-4-yl)-3-hexyl]-2-benzyloxycarbonylamino-4-methylpentanamide]", "values": [
      {"measurement": "Ki", "setting": "[1]", "result": 81, "unit": "nM"}
    ]}
  ]
}
